Results reported in EP4702979A1, “USE OF COMPOUND IN PREVENTION OR TREATMENT OF RADIATION-INDUCED BRAIN INJURY” (Guangzhou Cellprotek Pharmaceutical Co., Ltd, priority 2023, dated 2024).
Where two headings read alike, the source gives them in different places.

What was measured:
[1] = system: CC1 positive oligodendrocytes; settings: 60mg/kg/d YC-6 for 8 weeks; thalamus of the lesion, 8 weeks after gamma knife radiation; Mean±SEM, n=5; normal 1608.00±47.92, model 200.60±21.47; P<0.0001 vs model
Description: (§1) Table 1. Animal grouping and treatment methods
(§2) The model constructing method for focal radiation-induced brain injury caused by gamma ray radiation was modified based on reported literature. After anesthesia of mouse by intraperitoneal injection of 0.1% pentobarbital sodium solution, the body was fixed on a customized platform, and the mouse skull was scanned by X-ray computed tomography scanner for imaging processing (radiation energy of 80kV, imaging range of 250mm, layer thickness and interlayer spacing of 0.625mm, pixel size of 0.49*0.49mm). The animal irradiation position and gamma knife irradiation depth were determined based on the scanning imaging results. The mouse and customized platform were placed in a stereotactic gamma ray irradiation system for irradiation, with the irradiation site in the left thalamus of the mouse. The coordinates of the irradiation center positioning point were: 2mm behind the anterior fontanelle (AP), 2mm left of the midline (L), and 2mm below the skull dura mater (dorsal ventral DV).

GFAP positive astrocytes = settings: 60mg/kg/d YC-6 for 8 weeks; thalamus of the lesion, 8 weeks after gamma knife radiation; Mean±SEM, n=5; normal 57.80 ± 2.69, model 558.20 ± 10.07; P<0.0001 vs model
Description: as §1, §2

MAG = settings: 60mg/kg/d YC-6 for 8 weeks; thalamus of the lesion, 8 weeks after gamma knife radiation; Mean±SEM, n=5; normal 1.04±0.047, model 0.31±0.018; P<0.0001 vs model
Description: as §1, §2

[2] = system: gamma knife irradiation induced focal radiation-induced brain injury; settings: MRI 8 weeks after 50 Gy gamma ray radiation, Mean±SEM, n=5, RBI+Saline model 15.28 ± 0.98, P<0.05 vs model
Description: as §1, §2

[3] = Animal weighing in radiation-induced brain injury model; type: in vivo, C57BL/6 mice; settings: full 8-week YC-6 administration, 60mg/kg/d; weighed once a week
Method: as §1
Weighing was performed once a week before and after the gamma ray radiation model construction for 8 weeks.

C[C@@]12CCCC1C1C[C@@H](O)[C@@]3(O)C[C@@H](O)CC[C@]3(C)C1CC2 (stereo partly drawn) [YC-6, 5α-androst-3β,5,6β-triol]
Number of mature oligodendrocytes [1]: 506.40±30.48 Oligodendrocytes/mm^2
Number of astrocytes (GFAP positive astrocytes): 357.00 ± 10.61 Astrocytes/mm^2
MAG fluorescence signal intensity (MAG): 0.44±0.018
Volume of lesion ([2]; 60mg/kg/d YC-6 for 2 weeks, then stopped for 6 weeks): 12.28 ± 0.63^# mm^3
Volume of lesion ([2]; 60mg/kg/d YC-6 for 8 weeks): 10.27 ± 1.50^# mm^3
body weight [3]: without affecting body weight
